# Measurements published in patent publication US20240376121A1, “COMPOUNDS AND USES THEREOF” (Foghorn Therapeutics Inc., priority 2021, published 2024).
# Tests used:
# HiBit-BRM fusion protein = molecular target: T1, HiBit-BRM fusion protein (Homo sapiens, UniProt P51531); assay: HiBiT-BRM cell-based degradation assay (Nano-Glo HiBiT Lytic Detection); settings: stable HeLa cell line expressing HiBiT-BRM, 24 h incubation; for BRM HiBit Degradation Maximum (%): top dose 30 μM; for DC50: read-out: BRM HiBit Degradation IC50
# T1 construct: expressed in transfected cells
# T1 sequence (P51531 whole entry, the tested form may be a part): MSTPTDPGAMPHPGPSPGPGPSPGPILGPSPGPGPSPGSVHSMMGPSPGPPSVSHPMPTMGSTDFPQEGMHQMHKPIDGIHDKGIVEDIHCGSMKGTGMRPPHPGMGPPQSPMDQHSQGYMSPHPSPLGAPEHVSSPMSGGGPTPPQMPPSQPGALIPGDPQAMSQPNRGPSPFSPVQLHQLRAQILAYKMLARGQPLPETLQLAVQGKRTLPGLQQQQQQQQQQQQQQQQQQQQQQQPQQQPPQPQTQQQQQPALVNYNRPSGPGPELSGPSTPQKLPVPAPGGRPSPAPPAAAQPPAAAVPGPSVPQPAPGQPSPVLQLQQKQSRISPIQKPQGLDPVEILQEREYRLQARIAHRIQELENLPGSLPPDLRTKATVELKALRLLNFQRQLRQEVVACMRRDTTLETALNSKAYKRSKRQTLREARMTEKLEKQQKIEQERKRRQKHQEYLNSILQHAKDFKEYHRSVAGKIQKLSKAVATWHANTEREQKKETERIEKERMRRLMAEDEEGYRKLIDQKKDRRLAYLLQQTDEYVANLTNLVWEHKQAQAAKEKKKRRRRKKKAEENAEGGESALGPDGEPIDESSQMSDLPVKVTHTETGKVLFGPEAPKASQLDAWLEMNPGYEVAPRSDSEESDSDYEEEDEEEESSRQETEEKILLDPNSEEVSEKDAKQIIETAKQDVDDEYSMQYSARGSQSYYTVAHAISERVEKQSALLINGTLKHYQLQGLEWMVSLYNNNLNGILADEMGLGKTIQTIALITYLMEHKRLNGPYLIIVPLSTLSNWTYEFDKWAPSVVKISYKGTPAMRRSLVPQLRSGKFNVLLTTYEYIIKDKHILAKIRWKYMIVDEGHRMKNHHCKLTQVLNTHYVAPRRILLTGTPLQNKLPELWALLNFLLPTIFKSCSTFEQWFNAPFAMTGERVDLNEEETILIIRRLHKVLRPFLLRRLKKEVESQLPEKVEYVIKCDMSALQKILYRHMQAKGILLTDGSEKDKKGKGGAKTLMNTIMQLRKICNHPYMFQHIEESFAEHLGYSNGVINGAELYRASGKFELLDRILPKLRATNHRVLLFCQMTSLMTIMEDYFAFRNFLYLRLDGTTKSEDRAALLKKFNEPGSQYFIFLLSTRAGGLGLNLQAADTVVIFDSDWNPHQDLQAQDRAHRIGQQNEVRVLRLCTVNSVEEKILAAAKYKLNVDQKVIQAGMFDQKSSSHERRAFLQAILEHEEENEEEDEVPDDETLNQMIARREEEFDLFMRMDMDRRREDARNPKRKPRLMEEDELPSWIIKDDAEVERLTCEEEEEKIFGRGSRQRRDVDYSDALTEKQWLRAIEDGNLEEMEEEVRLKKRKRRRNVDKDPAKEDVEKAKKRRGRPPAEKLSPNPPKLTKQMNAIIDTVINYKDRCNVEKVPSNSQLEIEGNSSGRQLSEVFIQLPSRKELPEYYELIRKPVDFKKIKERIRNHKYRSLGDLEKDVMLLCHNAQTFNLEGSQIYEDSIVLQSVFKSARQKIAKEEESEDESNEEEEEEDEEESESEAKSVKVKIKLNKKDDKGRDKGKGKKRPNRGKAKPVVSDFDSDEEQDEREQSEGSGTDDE
# Outline: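 Luminescence from reconstituted NanoBiT luciferase in lysed HeLa HiBiT-BRM cells served as the measure of remaining BRM after 24 h treatment. Compounds were tested from 30 μM final downward in 3-fold steps. DMSO and 2 μM of a standard BRM/BRG1 degrader defined the scale limits.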
# [1] = molecular target: T2, HiBit-BRG1 fusion protein (Homo sapiens, UniProt P51532); assay: HiBiT-BRG1 cell-based degradation assay (Nano-Glo HiBiT Lytic Detection); settings: stable HeLa cell line expressing HiBit-BRG1 and LgBit, 24 h incubation; for Dmax: top dose 30 μM, read-out: BRG1 HiBit Degradation Maximum (%); for DC50: read-out: BRMG1 HiBit Degradation IC50
# T2 construct: expressed in transfected cells
# T2 sequence (P51532 whole entry, the tested form may be a part): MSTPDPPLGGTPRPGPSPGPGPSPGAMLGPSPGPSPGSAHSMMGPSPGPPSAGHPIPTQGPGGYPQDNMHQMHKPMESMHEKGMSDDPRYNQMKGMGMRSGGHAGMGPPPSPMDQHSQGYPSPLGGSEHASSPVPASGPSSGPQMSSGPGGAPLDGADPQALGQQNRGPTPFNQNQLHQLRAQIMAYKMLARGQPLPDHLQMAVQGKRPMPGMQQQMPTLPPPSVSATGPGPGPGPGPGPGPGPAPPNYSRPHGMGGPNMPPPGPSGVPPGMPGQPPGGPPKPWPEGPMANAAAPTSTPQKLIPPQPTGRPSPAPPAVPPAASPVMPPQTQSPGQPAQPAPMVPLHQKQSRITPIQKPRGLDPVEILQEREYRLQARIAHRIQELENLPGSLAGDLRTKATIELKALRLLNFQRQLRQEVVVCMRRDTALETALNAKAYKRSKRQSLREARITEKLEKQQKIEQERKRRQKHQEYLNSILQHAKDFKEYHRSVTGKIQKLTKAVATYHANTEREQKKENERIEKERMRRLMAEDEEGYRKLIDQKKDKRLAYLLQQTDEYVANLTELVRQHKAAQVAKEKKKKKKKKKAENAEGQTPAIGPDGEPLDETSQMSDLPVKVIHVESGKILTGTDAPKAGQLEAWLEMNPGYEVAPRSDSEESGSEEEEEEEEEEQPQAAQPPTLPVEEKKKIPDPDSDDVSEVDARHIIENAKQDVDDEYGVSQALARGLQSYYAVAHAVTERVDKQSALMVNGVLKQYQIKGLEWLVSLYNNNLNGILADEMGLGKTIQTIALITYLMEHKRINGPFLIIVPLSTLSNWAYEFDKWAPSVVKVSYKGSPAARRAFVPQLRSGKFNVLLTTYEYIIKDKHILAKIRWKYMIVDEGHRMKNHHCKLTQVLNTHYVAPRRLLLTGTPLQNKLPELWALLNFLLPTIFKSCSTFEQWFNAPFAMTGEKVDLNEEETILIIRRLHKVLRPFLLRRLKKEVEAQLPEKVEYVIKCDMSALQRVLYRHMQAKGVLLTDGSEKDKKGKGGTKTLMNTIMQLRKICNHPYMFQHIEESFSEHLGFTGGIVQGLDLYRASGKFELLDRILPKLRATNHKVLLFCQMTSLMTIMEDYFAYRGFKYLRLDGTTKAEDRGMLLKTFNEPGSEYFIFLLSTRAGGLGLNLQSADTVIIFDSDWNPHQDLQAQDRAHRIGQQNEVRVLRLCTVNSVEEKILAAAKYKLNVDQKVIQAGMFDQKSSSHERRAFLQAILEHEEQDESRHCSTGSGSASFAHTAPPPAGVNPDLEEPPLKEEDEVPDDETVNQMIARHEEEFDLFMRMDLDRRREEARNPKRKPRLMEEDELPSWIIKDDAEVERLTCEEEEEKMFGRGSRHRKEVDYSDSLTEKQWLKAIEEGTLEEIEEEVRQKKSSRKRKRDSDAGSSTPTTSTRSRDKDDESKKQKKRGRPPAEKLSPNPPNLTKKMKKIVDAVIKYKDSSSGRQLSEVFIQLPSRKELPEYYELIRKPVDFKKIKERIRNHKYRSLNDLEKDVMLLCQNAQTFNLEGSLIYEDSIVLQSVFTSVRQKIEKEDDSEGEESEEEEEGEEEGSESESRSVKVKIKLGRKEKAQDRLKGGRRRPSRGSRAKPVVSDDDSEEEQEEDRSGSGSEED
# Outline: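 HeLa cells stably expressing HiBiT-BRG1 and LgBiT treated 24 h with 10-point 3-fold dilutions (top 30 μM, duplicate). Luminescence read after Nano-Glo HiBiT lytic reagent; % degradation relative to DMSO (high control) and 2 μM reference BRM/BRG1 degrader (low control).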
Compound,BRM HiBit Degradation Maximum (%) (HiBit-BRM fusion protein),DC50 (HiBit-BRM fusion protein) [µM],Dmax [1] [%],DC50 [1] [µM]
"Cc1ncsc1-c1ccc([C@H](C)NC(=O)[C@@H]2C[C@@H](O)CN2C(=O)[C@@H](c2cc(N3C[C@H]4C[C@@H]3CN4C(=O)[C@@H]3CCc4sc5nnc(-c6ccccc6O)cc5c4C3)no2)C(C)C)cc1 [Compound 42, (2S,4R)-4-hydroxy-1-((R)-2-(3-((1R,4R)-5-((R)-3-(2-hydroxyphenyl)-5,6,7,8-tetrahydrobenzo[4,5]thieno[2,3-c]pyridazine-6-carbonyl)-2,5-diazabicyclo[2.2.1]heptan-2-yl)isoxazol-5-yl)-3-methylbutanoyl)-N—((S)-1-(4-(4-methylthiazol-5-yl)phenyl)ethyl)pyrrolidine-2-carboxamide]",A (“A” indicates maximum degradation ≥ 75%),≥ 0.1,< 50,≥ 1
"Cc1ncsc1-c1ccc([C@H](C)NC(=O)[C@@H]2C[C@@H](O)CN2C(=O)[C@@H](c2cc(N3C[C@@H]4C[C@H]3CN4C(=O)[C@H]3CCc4sc5nnc(-c6ccccc6O)cc5c4C3)no2)C(C)C)cc1 [Compound 43, (2S,4R)-4-hydroxy-1-((R)-2-(3-((1S,4S)-5-((S)-3-(2-hydroxyphenyl)-5,6,7,8-tetrahydrobenzo[4,5]thieno[2,3-c]pyridazine-6-carbonyl)-2,5-diazabicyclo[2.2.1]heptan-2-yl)isoxazol-5-yl)-3-methylbutanoyl)-N-((S)-1-(4-(4-methylthiazol-5-yl)phenyl)ethyl)pyrrolidine-2-carboxamide]",C (“C” indicates maximum degradation < 50%),≥ 1,< 50,≥ 1
"Cc1ncsc1-c1ccc([C@H](C)NC(=O)[C@@H]2C[C@@H](O)CN2C(=O)[C@@H](c2cc(N3C[C@@H]4C[C@H]3CN4C(=O)[C@@H]3CCc4sc5nnc(-c6ccccc6O)cc5c4C3)no2)C(C)C)cc1 [Compound 44, (2S,4R)-4-hydroxy-1-((R)-2-(3-((1S,4S)-5-((R)-3-(2-hydroxyphenyl)-5,6,7,8-tetrahydrobenzo[4,5]thieno[2,3-c]pyridazine-6-carbonyl)-2,5-diazabicyclo[2.2.1]heptan-2-yl)isoxazol-5-yl)-3-methylbutanoyl)-N-((S)-1-(4-(4-methylthiazol-5-yl)phenyl)ethyl)pyrrolidine-2-carboxamide]",B (“B” indicates maximum degradation ≥ 50%),≥ 0.1,< 50,≥ 1
"Cc1ncsc1-c1ccc([C@H](C)NC(=O)[C@@H]2C[C@@H](O)CN2C(=O)[C@@H](c2cc(OCCNC(=O)[C@H]3CCc4sc5nnc(-c6ccccc6O)cc5c4C3)no2)C(C)C)cc1 [Compound 45, (S)-N-(2-((5-((R)-1-((2S,4R)-4-hydroxy-2-(((S)-1-(4-(4-methylthiazol-5-yl)phenyl)ethyl)carbamoyl)pyrrolidin-1-yl)-3-methyl-1-oxobutan-2-yl)isoxazol-3-yl)oxy)ethyl)-3-(2-hydroxyphenyl)-5,6,7,8-tetrahydrobenzo[4,5]thieno[2,3-c]pyridazine-6-carboxamide]",B (“B” indicates maximum degradation ≥ 50%),≥ 0.1,< 50,≥ 1
"Cc1ncsc1-c1ccc([C@H](C)NC(=O)[C@@H]2C[C@@H](O)CN2C(=O)[C@@H](c2cc(OCCNC(=O)[C@@H]3CCc4sc5nnc(-c6ccccc6O)cc5c4C3)no2)C(C)C)cc1 [Compound 46, (R)-N-(2-((5-((R)-1-((2S,4R)-4-hydroxy-2-(((S)-1-(4-(4-methylthiazol-5-yl)phenyl)ethyl)carbamoyl)pyrrolidin-1-yl)-3-methyl-1-oxobutan-2-yl)isoxazol-3-yl)oxy)ethyl)-3-(2-hydroxyphenyl)-5,6,7,8-tetrahydrobenzo[4,5]thieno[2,3-c]pyridazine-6-carboxamide]",C (“C” indicates maximum degradation < 50%),≥ 1,< 50,≥ 1
"Cc1ncsc1-c1ccc([C@H](C)NC(=O)[C@@H]2C[C@@H](O)CN2C(=O)[C@@H](c2cc(C3CCN(C(=O)[C@H]4CCc5sc6nnc(-c7ccccc7O)cc6c5C4)CC3)no2)C(C)C)cc1 [Compound 47, (2S,4R)-4-hydroxy-1-((R)-2-(3-(1-((S)-3-(2-hydroxyphenyl)-5,6,7,8-tetrahydrobenzo[4,5]thieno[2,3-c]pyridazine-6-carbonyl)piperidin-4-yl)isoxazol-5-yl)-3-methylbutanoyl)-N-((S)-1-(4-(4-methylthiazol-5-yl)phenyl)ethyl)pyrrolidine-2-carboxamide]",A (“A” indicates maximum degradation ≥ 75%),≥ 0.1,< 50,≥ 1
"Cc1ncsc1-c1ccc([C@H](C)NC(=O)[C@@H]2C[C@@H](O)CN2C(=O)[C@@H](c2cc(C3CCN(C(=O)[C@@H]4CCc5sc6nnc(-c7ccccc7O)cc6c5C4)CC3)no2)C(C)C)cc1 [Compound 48, (2S,4R)-4-hydroxy-1-((R)-2-(3-(1-((R)-3-(2-hydroxyphenyl)-5,6,7,8-tetrahydrobenzo[4,5]thieno[2,3-c]pyridazine-6-carbonyl)piperidin-4-yl)isoxazol-5-yl)-3-methylbutanoyl)-N-((S)-1-(4-(4-methylthiazol-5-yl)phenyl)ethyl)pyrrolidine-2-carboxamide]",C (“C” indicates maximum degradation < 50%),≥ 1,< 50,≥ 1
"Cc1ncsc1-c1ccc([C@H](C)NC(=O)[C@@H]2C[C@@H](O)CN2C(=O)[C@@H](c2cc(OCCN3CCN(c4cc5nnc(-c6ccccc6O)cc5s4)CC3)no2)C(C)C)cc1 [Compound 49, (2S,4R)-4-hydroxy-1-((R)-2-(3-(2-(4-(3-(2-hydroxyphenyl)thieno[3,2-c]pyridazin-6-yl)piperazin-1-yl)ethoxy)isoxazol-5-yl)-3-methylbutanoyl)-N-((S)-1-(4-(4-methylthiazol-5-yl)phenyl)ethyl)pyrrolidine-2-carboxamide]",A (“A” indicates maximum degradation ≥ 75%),< 0.01,≥ 75,≥ 0.01
"Cc1ncsc1-c1ccc([C@H](C)NC(=O)[C@@H]2C[C@@H](O)CN2C(=O)[C@@H](NC(=O)[C@H]2CC[C@@H](c3sc4nnc(-c5ccccc5O)cc4c3C)CC2)C(C)(C)C)cc1 [Compound 50, (2S,4R)-4-hydroxy-1-((S)-2-((1s,4R)-4-(3-(2-hydroxyphenyl)-5-methylthieno[2,3-c]pyridazin-6-yl)cyclohexane-1-carboxamido)-3,3-dimethylbutanoyl)-N-((S)-1-(4-(4-methylthiazol-5-yl)phenyl)ethyl)pyrrolidine-2-carboxamide]",C (“C” indicates maximum degradation < 50%),≥ 1,< 50,≥ 1
"Cc1ncsc1-c1ccc([C@H](C)NC(=O)[C@@H]2C[C@@H](O)CN2C(=O)[C@@H](NC(=O)[C@H]2CC[C@H](c3sc4nnc(-c5ccccc5O)cc4c3C)CC2)C(C)(C)C)cc1 [Compound 51, (2S,4R)-4-hydroxy-1-((S)-2-((1r,4S)-4-(3-(2-hydroxyphenyl)-5-methylthieno[2,3-c]pyridazin-6-yl)cyclohexane-1-carboxamido)-3,3-dimethylbutanoyl)-N-((S)-1-(4-(4-methylthiazol-5-yl)phenyl)ethyl)pyrrolidine-2-carboxamide]",C (“C” indicates maximum degradation < 50%),≥ 1,< 50,≥ 1
"Cc1ncsc1-c1ccc([C@H](C)NC(=O)[C@@H]2C[C@@H](O)CN2C(=O)[C@@H](c2cc(N3CCN(C(=O)[C@H]4CCc5sc6nnc(-c7ccccc7O)cc6c5C4)CC3)no2)C(C)C)cc1 [Compound 52, (2S,4R)-4-hydroxy-1-((R)-2-(3-(4-((S)-3-(2-hydroxyphenyl)-5,6,7,8-tetrahydrobenzo[4,5]thieno[2,3-c]pyridazine-6-carbonyl)piperazin-1-yl)isoxazol-5-yl)-3-methylbutanoyl)-N-((S)-1-(4-(4-methylthiazol-5-yl)phenyl)ethyl)pyrrolidine-2-carboxamide]",C (“C” indicates maximum degradation < 50%),≥ 1,< 50,≥ 1
"Cc1ncsc1-c1ccc([C@H](C)NC(=O)[C@@H]2C[C@@H](O)CN2C(=O)[C@@H](c2cc(OCCN3CCC(O)(c4sc5nnc(-c6ccccc6O)cc5c4C)CC3)no2)C(C)C)cc1 [Compound 54, (2S,4R)-4-hydroxy-1-((R)-2-(3-(2-(4-hydroxy-4-(3-(2-hydroxyphenyl)-5-methylthieno[2,3-c]pyridazin-6-yl)piperidin-1-yl)ethoxy)isoxazol-5-yl)-3-methylbutanoyl)-N-((S)-1-(4-(4-methylthiazol-5-yl)phenyl)ethyl)pyrrolidine-2-carboxamide]",A (“A” indicates maximum degradation ≥ 75%),≥ 0.01,< 50,≥ 1
"Cc1cc([C@H](C(=O)N2C[C@H](O)C[C@H]2C(=O)NCc2ccc(-c3scnc3C)cc2OCCCN2CCC(c3sc4nnc(-c5ccccc5O)cc4c3C)CC2)C(C)C)on1 [Compound 57, (2S,4R)-4-hydroxy-N-(2-(3-(4-(3-(2-hydroxyphenyl)-5-methylthieno[2,3-c]pyridazin-6-yl)piperidin-1-yl)propoxy)-4-(4-methylthiazol-5-yl)benzyl)-1-((R)-3-methyl-2-(3-methylisoxazol-5-yl)butanoyl)pyrrolidine-2-carboxamide]",B (“B” indicates maximum degradation ≥ 50%),≥ 0.01,< 50,≥ 1
